Laboratory results from article PMC5642494 (Oncotarget, 2017).
Read-outs that look alike come from different tables or passages of the source.

Experiments:
MCF7 cells = test: PI high content imaging of G1 arrest and cell proliferation, MCF7; format: cell-based; conditions: Homo sapiens
Method: Relative IC50/EC50 values were determined by curve fitting to a four parameter logistic equation: Y = bottom + ((top-bottom)/ (1+exp(HillSlope*(X – LnIC50)), where X is the natural log of dose/concentration, Y is response, decreasing as X increases, top and bottom are plateaus in the same units as Y, lnIC50 is the natural log of potency, in the same log units as X, and HillSlope measures the steepness of the curve. Data were plotted using GraphPad Prism. […]
(§1) Preclinical characterization of abemaciclib in hormone receptor […]
METHODS High content imaging cell-based assays for monitoring phosphorylation of Rb (ser780), G1 arrest and […]
ATP at 20°C by a secondary goat anti-mouse IgG-Alexa Fluor 488 in a 96-well plate filtration assay format. […] Plates were read in an kinase buffer containing 68 mM Hepes at pH 7.5, 6.67 mM Acumen Explorer eX3 (TTP Labtech). […] 10µL of CDK6/cyclin corresponding to 500-530 nm and the percentage of D3 enzyme complex (Millipore 14-519, #D13BP009NA) cells with pRb signal relative to the total PI stained (1 nM final concentration in the assay) was added onto subpopulation was calculated by the instrument’s software a mix of substrate and test compound. […]
(§2) (EDTA) was used to determine the level of background evaluated by measuring PI signal using high content 33P in the absence of enzyme activity. […]

pRb (Ser780) = test: High content imaging of Rb phosphorylation (Ser780), EFM-19; format: cell-based; conditions: Homo sapiens, 16 hours, mean ± Stdev n = 2
Method: Relative IC50/EC50 values were determined by curve fitting to a four parameter logistic equation: Y = bottom + ((top-bottom)/ (1+exp(HillSlope*(X – LnIC50)), where X is the natural log of dose/concentration, Y is response, decreasing as X increases, top and bottom are plateaus in the same units as Y, lnIC50 is the natural log of potency, in the same log units as X, and HillSlope measures the steepness of the curve. Data were plotted using GraphPad Prism.
As controls, cells were treated with 10 µM palbociclib or vehicle ( 0.2 % v/v DMSO). Additional details for cell-based assays are provided in the Supplemental Methods. […]
www.impactjournals.com/oncotarget/ Oncotarget Supplementary Materials
as §1
METHODS High content imaging cell-based assays for monitoring phosphorylation of Rb (ser780), G1 arrest and
Enzyme kinetics of CDK6/cyclin D3 complexes Cells were fixed with para-formaldehyde and Rb phosphorylation at Serine 780 was detected using CDK6/cyclin D3 activity was measured by the a primary mouse anti-Rb (PS780) antibody followed phosphorylation of CTRF using [g-33P] […] Plates were read in an kinase buffer containing 68 mM Hepes at pH 7.5, 6.67 mM Acumen Explorer eX3 (TTP Labtech). […]
as §2

In the case of `CCN1CCN(Cc2ccc(Nc3ncc(F)c(-c4cc(F)c5nc(C)n(C(C)C)c5c4)n3)nc2)CC1` [abemaciclib, Abemaciclib], the IC50 (MCF7 cells; n = 2, read-out: IC50 2n (G1 arrest)) is reported as 54 ± 16 nM, the IC50 (MCF7 cells; n = 2, read-out: IC50 Cell number) is reported as 369 ± 370 nM and the IC50 (pRb (Ser780)) is reported as 12 ± 11 nM.
